According to US20160264593A1 (priority 2013, published 2016):
Read-outs that look alike come from different tables or passages of the source.

Test: Pharmacokinetic study of 153 (and metabolite endothal) in SD rats, iv and po; plasma, liver, brain
Type: in vivo
Conditions: for MRT last: read-out: MRT (0-t); for half-life: read-out: T1/2 (converted); for Tmax: read-out: Tmax
Procedure: The blood, liver and brain tissue samples were collected at predetermined times from rats. […] Compound were diluted shortly before use in 4% sodium bicarbonate for sterile injection (this is the standard pediatric solution of NaHCO3 with a pH of about 8.5).
Compound 153 was freshly prepared by diluting the drugs shortly before use in 4% sodium bicarbonate for sterile injection (this is the standard pediatric solution of NaHCO3 with a pH of about 8.5). The final concentrations of 153 solutions were 0.25 mg/mL. The 153 solutions were administered via iv or po route at dose volume of 5 ml/kg according to the latest body weight. Compound 157 was freshly prepared by diluting the drugs shortly before use in 4% sodium bicarbonate for sterile injection (this is the standard pediatric solution of NaHCO3 with a pH of about 8.5). The final concentrations of […] solutions were 0.3 mg/mL. The 157 solutions were administered via iv or po route at dose volume of 5 ml/kg according to the latest body weight.
Twelve (12) female SD rats per group were dosed by iv with 153 or 157. The rats were fasted overnight prior to dosing, with free access to water. Foods were withheld for 2 hours post-dose. Blood, liver and brain tissue samples in two animals each group were collected at each time point, within 10% of the scheduled time for each time point. Two extra animals were used for analytic method development.
Blood (>0.3 mL) were collected via aorta abdominalis in anaesthetic animals into tubes containing heparin at 15 min, 1, 2, 6, 10 and 24 hours after iv administration. Liver and brain tissues were collected immediately after animal death. The liver and brain tissues were excised and rinsed with cold saline to avoid blood residual. Upon collection, each sample was placed on ice and the blood samples were subsequently centrifuged (4° C., 11000 rpm, 5 min) to separate plasma. The obtained plasma, liver and brain tissue samples were stored at −70° C. until LC-MS/MS analysis.
Two (2) female SD rats per group were dosed by po with 153 or 157. The rats were fasted overnight prior to dosing, with free access to water. Foods were withheld for 2 hours post-dose. Blood samples (>0.3 mL) were collected via aorta abdominalis in anaesthetic animals into tubes containing heparin at 30 min, 1, 2, 6, 10 and 24 hours after po administration.
To each sample, 20 μL IS-D (for blank samples, 20 μL acetonitrile:water (1:1) was added) and 300 μl acetonitrile was added. The sample mixture was vortexed for approximately 3 min. After centrifugation at 10000 rpm for 5 min at 4° C., 100 μL of the upper layer was transferred to a new tube and added 200 μL 0.4% formic acid in water (pH 6.0). The mixture was vortexed for approximately 3 min before injected onto the LC/MS/MS system for analysis.
On the day of the assay, the frozen liver and brain samples were thawed unassisted at room temperature. An about 200 mg weighed sample of each thawed tissue was placed into a plastic tube with water (0.6 mL) to facilitate homogenization. Tissue processing was conducted using a homogenizer for approximately 1 min, 200 μl homogenate was transferred into a fresh Eppendorf tube. To each tube, 50 μL IS-D was added and mixed. Then 600 μl acetonitrile was added and the sample mixture was vortexed for approximately 3 min. After centrifugation at 10000 rpm for 5 min at 4° C., 400 μL of the upper layer was transferred to a new tube and evaporate the supernatant to dryness at 35° C. Reconstitute the residue with 200 μL of 0.4% formic acid in water (pH6.0), and vortex for 3 min, submit for LC-MS/MS analysis.
Frozen unknown plasma samples were completely thawed at room temperature and vortexed thoroughly. With a pipette, 50 μL of plasma was transferred into a 2.0 mL Eppendorf tube. 50 μL of 0.1N HCl and 800 μL ethyl acetate were added into each sample. The sample mixture was vortexed for approximately 3 min.

[1] = female, SD, rat, in vivo, iv, 1.25 mg/kg, iv 1.25 mg/kg, Mean, read-out: 153 liver concentration
[2] = female, SD, rat, in vivo, iv, 1.25 mg/kg, iv 1.25 mg/kg, Mean, read-out: 153 plasma concentration
[3] = female, SD, rat, in vivo, iv, 1.25 mg/kg, iv 1.25 mg/kg, Rat 1, read-out: 153 brain concentration
[4] = female, SD, rat, in vivo, iv, 1.25 mg/kg, iv 1.25 mg/kg, Rat 1, read-out: 153 liver concentration
[5] = female, SD, rat, in vivo, iv, 1.25 mg/kg, iv 1.25 mg/kg, Rat 1, read-out: 153 plasma concentration
[6] = female, SD, rat, in vivo, iv, 1.25 mg/kg, iv 1.25 mg/kg, Rat 2, read-out: 153 brain concentration
[7] = female, SD, rat, in vivo, iv, 1.25 mg/kg, iv 1.25 mg/kg, Rat 2, read-out: 153 liver concentration
[8] = female, SD, rat, in vivo, iv, 1.25 mg/kg, iv 1.25 mg/kg, Rat 2, read-out: 153 plasma concentration
[9] = female, SD, rat, in vivo, po, 1.25 mg/kg, 153 in plasma, PO 1.25 mg/kg, Mean
[10] = female, SD, rat, in vivo, po, 1.25 mg/kg, 153 in plasma, PO 1.25 mg/kg, rat 1
[11] = female, SD, rat, in vivo, po, 1.25 mg/kg, 153 in plasma, PO 1.25 mg/kg, rat 2
[12] = female, SD, rat, in vivo, po, 1.25 mg/kg, PO per title, 1.25 mg/kg, Mean, read-out: 153 liver concentration
[13] = female, SD, rat, in vivo, po, 1.25 mg/kg, PO per title, 1.25 mg/kg, Rat 2, read-out: 153 liver concentration
[14] = female, Sprague-Dawley (SD), rat, in vivo, iv, 1.25 mg/kg, Brain, 1.25 mg/kg IV, Mean
[15] = female, Sprague-Dawley (SD), rat, in vivo, iv, 1.25 mg/kg, Brain, 1.25 mg/kg IV, rat 1
[16] = female, Sprague-Dawley (SD), rat, in vivo, iv, 1.25 mg/kg, Brain, 1.25 mg/kg IV, rat 2
[17] = female, Sprague-Dawley (SD), rat, in vivo, iv, 1.25 mg/kg, Liver, 1.25 mg/kg IV, Mean
[18] = female, Sprague-Dawley, rat, in vivo, po, 1.25 mg/kg, PO per title, 1.25 mg/kg, Rat 1, read-out: 153 liver concentration

SMILES: CCCOC(=O)C1C2CCC(O2)C1C(=O)N1CCN(C)CC1 (stereo not shown) [Compound 153, 3-(4-Methylpiperazine-1-carbonyl)-7-oxa-bicyclo[2,2,1]heptane-2-carboxylic acid propyl ester]
- concentration at 1 h [1]: 126 ng/g
- concentration at 1 h [2]: 54.7 ng/mL
- concentration at 1 h [3]: 13.9 ng/g
- concentration at 1 h [4]: 131 ng/g
- concentration at 1 h [5]: 58 ng/mL
- concentration at 1 h [6]: 14.3 ng/g
- concentration at 1 h [7]: 121 ng/g
- concentration at 1 h [8]: 51.4 ng/mL
- concentration at 2 h (female, SD, rat, in vivo, iv, 1.25 mg/kg, iv 1.25 mg/kg, Mean, read-out: 153 brain concentration): 4.4 ng/g
- concentration at 2 h [1]: 41.6 ng/g
- concentration at 2 h [2]: 13.9 ng/mL
- concentration at 2 h [3]: 4.05 ng/g
- concentration at 2 h [4]: 42 ng/g
- concentration at 2 h [5]: 14.8 ng/mL
- concentration at 2 h [6]: 4.75 ng/g
- concentration at 2 h [7]: 41.2 ng/g
- concentration at 2 h [8]: 13 ng/mL
- concentration at 6 h (female, SD, rat, in vivo, iv, 1.25 mg/kg, iv 1.25 mg/kg, 6 hr, Mean): 1.03 ng/mL
- concentration at 6 h (female, SD, rat, in vivo, iv, 1.25 mg/kg, iv 1.25 mg/kg, 6 hr, Rat 1): 1.04 ng/mL
- concentration at 6 h (female, SD, rat, in vivo, iv, 1.25 mg/kg, iv 1.25 mg/kg, 6 hr, Rat 2): 1.02 ng/mL
- concentration at 10 h (female, SD, rat, in vivo, iv, 1.25 mg/kg, iv 1.25 mg/kg, 10 hr, Rat 2, abnormal, not included in the calculation): 9.42 ng/mL
- MRT last [9]: 60.6 min
- half-life [9]: 20.6 min
- AUC(0-inf) [10]: 163 ng·h/mL
- AUC (female, SD, rat, in vivo, po, 1.25 mg/kg, 153 in plasma, PO 1.25 mg/kg, rat 1, read-out: AUC): 163 ng·h/mL
- Cmax (female, SD, rat, in vivo, po, 1.25 mg/kg, 153 in plasma, PO 1.25 mg/kg, rat 1, read-out: Cmax): 249 ng/mL
- MRT last [10]: 59.2 min
- half-life [10]: 19.8 min
- AUC(0-inf) [11]: 164 ng·h/mL
- AUC (female, SD, rat, in vivo, po, 1.25 mg/kg, 153 in plasma, PO 1.25 mg/kg, rat 2, read-out: AUC): 164 ng·h/mL
- Cmax (female, SD, rat, in vivo, po, 1.25 mg/kg, 153 in plasma, PO 1.25 mg/kg, rat 2, read-out: Cmax): 229 ng/mL
- MRT last [11]: 62.4 min
- half-life [11]: 21.3 min
- AUC (female, SD, rat, in vivo, po, 1.25 mg/kg, 153 po 1.25 mg/kg, read-out: AUC of 153 in plasma): 164 ng·h/mL
- Cmax (female, SD, rat, in vivo, po, 1.25 mg/kg, 153 po 1.25 mg/kg, read-out: Cmax of 153 in plasma): 239 ng/mL
- concentration at 0.25 h [12]: 762 ng/g
- concentration at 0.25 h [13]: 652 ng/g
- concentration at 1 h [12]: 126 ng/g
- concentration at 1 h (female, SD, rat, in vivo, po, 1.25 mg/kg, PO per title, 1.25 mg/kg, Rat 1, read-out: 153 liver concentration): 131 ng/g
- concentration at 1 h [13]: 121 ng/g
- AUC(0-t) (female, SD, rat, in vivo, 153 iv 1.25 mg/kg, read-out: AUClast of 153 in plasma): 295 ng·h/mL
- bioavailability (female, SD, rat, in vivo, 153 po vs iv 1.25 mg/kg, read-out: BA (bioavailability) of 153): 55.4%
- Cmax (female, Sprague-Dawley (SD), rat, in vivo, iv, 1.25 mg/kg, Brain, 1.25 mg/kg IV, Mean, read-out: Cmax): 42.7 ng/g
- MRT last [14]: 58.3 min
- half-life [14]: 35.8 min
- Cmax (female, Sprague-Dawley (SD), rat, in vivo, iv, 1.25 mg/kg, Brain, 1.25 mg/kg IV, rat 1, read-out: Cmax): 45 ng/g
- MRT last [15]: 56 min
- half-life [15]: 33.7 min
- Cmax (female, Sprague-Dawley (SD), rat, in vivo, iv, 1.25 mg/kg, Brain, 1.25 mg/kg IV, rat 2, read-out: Cmax): 40.3 ng/g
- MRT last [16]: 60.6 min
- half-life [16]: 37.7 min
- Cmax (female, Sprague-Dawley (SD), rat, in vivo, iv, 1.25 mg/kg, Liver, 1.25 mg/kg IV, Mean, read-out: Cmax): 762 ng/g
- MRT last [17]: 47.1 min
- half-life [17]: 37.6 min
- half-life (female, Sprague-Dawley (SD), rat, in vivo, iv, 1.25 mg/kg, Liver, 1.25 mg/kg IV, rat 2): 38.6 min
- AUC(0-inf) (female, Sprague-Dawley (SD), rat, in vivo, po, 1.25 mg/kg, 153 in plasma, PO 1.25 mg/kg, Mean): 164 ng·h/mL
- AUC (female, Sprague-Dawley (SD), rat, in vivo, po, 1.25 mg/kg, 153 in plasma, PO 1.25 mg/kg, Mean, read-out: AUC): 164 ng·h/mL
- Cmax (female, Sprague-Dawley (SD), rat, in vivo, po, 1.25 mg/kg, 153 in plasma, PO 1.25 mg/kg, Mean, read-out: Cmax): 239 ng/mL
- Tmax (female, Sprague-Dawley (SD), rat, in vivo, 153 in plasma, PO 1.25 mg/kg, Mean): 30 min
- Tmax (female, Sprague-Dawley (SD), rat, in vivo, Liver, 1.25 mg/kg IV, Mean): 15 min
- concentration at 0.25 h [18]: 872 ng/g
- concentration at 2 h (female, Sprague-Dawley, rat, in vivo, po, 1.25 mg/kg, PO per title, 1.25 mg/kg, Mean, read-out: 153 liver concentration): 41.6 ng/g
- concentration at 2 h [18]: 42 ng/g
- concentration at 2 h (female, Sprague-Dawley, rat, in vivo, po, 1.25 mg/kg, PO per title, 1.25 mg/kg, Rat 2, read-out: 153 liver concentration): 41.2 ng/g
- 153 liver concentration (iv 1.25 mg/kg, 6 hr, Rat 1): BLQ
- 153 liver concentration (iv 1.25 mg/kg, 6 hr, Rat 2): BLQ
- 153 liver concentration (iv 1.25 mg/kg, 10 hr, Rat 1): BLQ
